Assay results as given in US20240210394A1, “MICROORGANISM CAPTURE FROM ANTIMICROBIAL-CONTAINING SOLUTION” (MOMENTUM BIOSCIENCE LIMITED, priority 2019, published 2024).

Tests used:
E. coli [1] = experiment: Blood culture time to positivity (flip time), bead rescue vs no-rescue control; format: cell-based; details: Piperacillin 96 ug/mL blood; for Flip time in Days: No bead rescue Control BC; for Time to positivity in days: 1800 cfu/5 ml
E. coli [2] = experiment: TVC viability of E. coli in whole blood with SPS over time; format: cell-based
Protocol: 2×5 mL whole blood or BacTec PLUS aerobic blood broth (1:3 ratio) aliquoted for each sample-set (E. coli and NSC sample). Then SPS added as follows:
Then 5 μL of E. coli 1E-2 preculture added to each 5-mL specimen tube to recreate standard 1E-5 dilution sample
• 1.88 μL neat o/n in Nutrient Broth (NB) added to 3 mL NB; and incubated for 2 hours at 37° C., 500 rpm • After 2 hours, E. coli preculture diluted 10-fold in warm NB; and then 5 μL added to each 5 mL specimen tube (prepared as shown in test conditions) • Magnitor Test initiated immediately, and TVCs performed as detailed below.
• 100 μL on COL plates at Time Zero • Sample bijous, containing approximately 2 mL sample, left at room temperature (20.4° C.) on bench (static) • TVCs performed at time points shown in table: samples mixed thoroughly before plating

CCN1CCN(C(=O)N[C@@H](C(=O)N[C@@H]2C(=O)N3[C@@H]2SC(C)(C)[C@@H]3C(=O)O)c2ccccc2)C(=O)C1=O [Piperacillin]
Flip time in Days (E. coli [1]; 50000 cfu/5 mL): Neg
Flip time in Days (E. coli [1]; 150000 cfu/5 mL): Neg
Time to positivity in days (E. coli [1]; Control (no beads)): Neg
Time to positivity in days (E. coli [1]; with magnetic beads in the bottle): Neg

Sodium polyanethol sulfonate [SPS]
FOLD INCR. 0-2 hr (E. coli [2]; WB SPS 0.01 %): 3.39
TVC colonies (E. coli [2]; WB SPS 0.01 %, EC Time 2 hrs): 498 colonies
TVC colonies (E. coli [2]; WB SPS 0.01 %, EC Time 4 hrs): TNTC
TVC colonies (E. coli [2]; WB SPS 0.01 %, EC Time 6 hrs): TNTC
TVC colonies (E. coli [2]; WB SPS 0.01 %, EC Time 21 hrs): LAWN
TVC colonies (E. coli [2]; WB SPS 0.01 %, EC Time ZERO): 147 colonies
FOLD INCR. 0-2 hr (E. coli [2]; WB SPS 0.02 %): 4.67
TVC colonies (E. coli [2]; WB SPS 0.02 %, EC Time 2 hrs): 448 colonies
TVC colonies (E. coli [2]; WB SPS 0.02 %, EC Time 4 hrs): TNTC
TVC colonies (E. coli [2]; WB SPS 0.02 %, EC Time 6 hrs): TNTC
TVC colonies (E. coli [2]; WB SPS 0.02 %, EC Time 21 hrs): LAWN
TVC colonies (E. coli [2]; WB SPS 0.02 %, EC Time ZERO): 96 colonies
FOLD INCR. 0-2 hr (E. coli [2]; WB SPS 0.04 %): 3.12
TVC colonies (E. coli [2]; WB SPS 0.04 %, EC Time 2 hrs): 1106 colonies
TVC colonies (E. coli [2]; WB SPS 0.04 %, EC Time 4 hrs): TNTC
TVC colonies (E. coli [2]; WB SPS 0.04 %, EC Time 6 hrs): TNTC
TVC colonies (E. coli [2]; WB SPS 0.04 %, EC Time 21 hrs): LAWN
TVC colonies (E. coli [2]; WB SPS 0.04 %, EC Time ZERO): 354 colonies
FOLD INCR. 0-2 hr (E. coli [2]; WB SPS 0.06 %): 5.94
TVC colonies (E. coli [2]; WB SPS 0.06 %, EC Time 2 hrs): 760 colonies
TVC colonies (E. coli [2]; WB SPS 0.06 %, EC Time 4 hrs): TNTC
TVC colonies (E. coli [2]; WB SPS 0.06 %, EC Time 6 hrs): TNTC
TVC colonies (E. coli [2]; WB SPS 0.06 %, EC Time 21 hrs): LAWN
TVC colonies (E. coli [2]; WB SPS 0.06 %, EC Time ZERO): 128 colonies
FOLD INCR. 0-2 hr (E. coli [2]; WB SPS 0.08 %): 1.52
TVC colonies (E. coli [2]; WB SPS 0.08 %, EC Time 2 hrs): 491 colonies
TVC colonies (E. coli [2]; WB SPS 0.08 %, EC Time 4 hrs): TNTC
TVC colonies (E. coli [2]; WB SPS 0.08 %, EC Time 6 hrs): TNTC
TVC colonies (E. coli [2]; WB SPS 0.08 %, EC Time 21 hrs): LAWN
TVC colonies (E. coli [2]; WB SPS 0.08 %, EC Time ZERO): 322 colonies
FOLD INCR. 0-2 hr (E. coli [2]; WB SPS 0.1 %): 2.71
TVC colonies (E. coli [2]; WB SPS 0.1 %, EC Time 2 hrs): 341 colonies
TVC colonies (E. coli [2]; WB SPS 0.1 %, EC Time 4 hrs): TNTC
TVC colonies (E. coli [2]; WB SPS 0.1 %, EC Time 6 hrs): TNTC
TVC colonies (E. coli [2]; WB SPS 0.1 %, EC Time 21 hrs): LAWN
TVC colonies (E. coli [2]; WB SPS 0.1 %, EC Time ZERO): 126 colonies
